According to patent US20250147039A1, “Compounds for complexation of rare earth elements and/or s-, p-, d- block metals, their coordination compounds, peptide conjugates, method of their preparation and use thereof” (USTAV ORGANICKE CHEMIE A BIOCHEMIE AV CR V.V.I., priority 2021, published 2025):

Tests used:
[1] = Formation of 1,5-cz-[M(Lig)] from Lig and M^III ions (metal dependent click-zip) (Charts 4, 5); type: physicochemical; conditions: MOPS/NaOH buffer pH 7.0; for conversion to 1,5-cz-[M(Lig)], Sc^III / conversion to 1,5-cz-[M(Lig)], Y^III: TD728, TD827 in 50% i-PrOH; for conversion to 1,5-cz-[M(Lig)], Y^III: TD714 sum of two diastereoisomers
[2] = Formation of 1,5-cz-[Ln(Lig)] from Lig and Ln^III ions (metal dependent click-zip), MOPS/NaOH buffer pH 7.0, analytical HPLC (Charts 1, 2); conditions: MOPS/NaOH buffer pH 7.0

In the case of `C#Cc1cccc(CN2CCN(CC(=O)O)CCN(Cc3cc(C(=O)OC(C)C)cc(CN=[N+]=[N-])n3)CCN(CC(=O)O)CC2)n1` [TD1148], the “conversion to 1,5-cz-[Ln(Lig)] with hydrolysed group in the side chain, Sc^III” value ([1]; 1 week at 80° C.) is reported as 11%, the “conversion to 1,5-cz-[Ln(Lig)] with hydrolysed group in the side chain, Y^III” value ([1]; 1 week at 80° C.) is reported as 94% and the “conversion to 1,5-cz-[M(Lig)], Sc^III” value ([1]; 1 week at 80° C.) is reported as 0%. The “conversion to 1,5-cz-[M(Lig)], Y^III” value ([1]; 1 week at 80° C.) was 0%, the “conversion to 1,5-cz-[Ln(Lig)] with hydrolysed group in the side chain, Sc^III” value ([1]; 1 hour at 80° C.) was 0% and the “conversion to 1,5-cz-[Ln(Lig)] with hydrolysed group in the side chain, Y^III” value ([1]; 1 hour at 80° C.) was 3%. The “conversion to 1,5-cz-[M(Lig)], Sc^III” value ([1]; 1 hour at 80° C.) was 0%, the “conversion to 1,5-cz-[M(Lig)], Y^III” value ([1]; 1 hour at 80° C.) was 18% and the “conversion to 1,5-cz-[Ln(Lig)] with hydrolysed group in the side chain, Ce^III” value ([2]; after 1 week at 80° C.) was 27%. For the same compound, the “conversion to 1,5-cz-[Ln(Lig)], Ce^III” value ([2]; after 1 week at 80° C.) was 0%, the “conversion to 1,5-cz-[Ln(Lig)] with hydrolysed group in the side chain, Ce^III” value ([2]; after 1 hour at 80° C.) was 0% and the “conversion to 1,5-cz-[Ln(Lig)], Ce^III” value ([2]; after 1 hour at 80° C.) was 0%. The “conversion to 1,5-cz-[Ln(Lig)] with hydrolysed group in the side chain, Dy^III” value ([2]; after 1 week at 80° C.) was 93%, the “conversion to 1,5-cz-[Ln(Lig)], Dy^III” value ([2]; after 1 week at 80° C.) was 0% and the “conversion to 1,5-cz-[Ln(Lig)] with hydrolysed group in the side chain, Dy^III” value ([2]; after 1 hour at 80° C.) was 2%. The “conversion to 1,5-cz-[Ln(Lig)], Dy^III” value ([2]; after 1 hour at 80° C.) was 14%, the “conversion to 1,5-cz-[Ln(Lig)] with hydrolysed group in the side chain, Er^III” value ([2]; after 1 week at 80° C.) was 94% and the “conversion to 1,5-cz-[Ln(Lig)], Er^III” value ([2]; after 1 week at 80° C.) was 0%. The “conversion to 1,5-cz-[Ln(Lig)] with hydrolysed group in the side chain, Er^III” value ([2]; after 1 hour at 80° C.) was 4%, the “conversion to 1,5-cz-[Ln(Lig)], Er^III” value ([2]; after 1 hour at 80° C.) was 33% and the “conversion to 1,5-cz-[Ln(Lig)] with hydrolysed group in the side chain, Eu^III” value ([2]; after 1 week at 80° C.) was 90%. The “conversion to 1,5-cz-[Ln(Lig)], Eu^III” value ([2]; after 1 week at 80° C.) was 0%, the “conversion to 1,5-cz-[Ln(Lig)] with hydrolysed group in the side chain, Eu^III” value ([2]; after 1 hour at 80° C.) was 0% and the “conversion to 1,5-cz-[Ln(Lig)], Eu^III” value ([2]; after 1 hour at 80° C.) was 4%. The “conversion to 1,5-cz-[Ln(Lig)] with hydrolysed group in the side chain, Gd^III” value ([2]; after 1 week at 80° C.) was 90%, the “conversion to 1,5-cz-[Ln(Lig)], Gd^III” value ([2]; after 1 week at 80° C.) was 0% and the “conversion to 1,5-cz-[Ln(Lig)] with hydrolysed group in the side chain, Gd^III” value ([2]; after 1 hour at 80° C.) was 1%. For the same compound, the “conversion to 1,5-cz-[Ln(Lig)], Gd^III” value ([2]; after 1 hour at 80° C.) was 5%, the “conversion to 1,5-cz-[Ln(Lig)] with hydrolysed group in the side chain, Ho^III” value ([2]; after 1 week at 80° C.) was 94% and the “conversion to 1,5-cz-[Ln(Lig)], Ho^III” value ([2]; after 1 week at 80° C.) was 0%. The “conversion to 1,5-cz-[Ln(Lig)] with hydrolysed group in the side chain, Ho^III” value ([2]; after 1 hour at 80° C.) was 3%, the “conversion to 1,5-cz-[Ln(Lig)], Ho^III” value ([2]; after 1 hour at 80° C.) was 21% and the “conversion to 1,5-cz-[Ln(Lig)] with hydrolysed group in the side chain, La^III” value ([2]; after 1 week at 80° C.) was 36%. The “conversion to 1,5-cz-[Ln(Lig)], La^III” value ([2]; after 1 week at 80° C.) was 0%, the “conversion to 1,5-cz-[Ln(Lig)] with hydrolysed group in the side chain, La^III” value ([2]; after 1 hour at 80° C.) was 0% and the “conversion to 1,5-cz-[Ln(Lig)], La^III” value ([2]; after 1 hour at 80° C.) was 0%. For the same compound, the “conversion to 1,5-cz-[Ln(Lig)] with hydrolysed group in the side chain, Lu^III” value ([2]; after 1 week at 80° C.) was 96%, the “conversion to 1,5-cz-[Ln(Lig)], Lu^III” value ([2]; after 1 week at 80° C.) was 0% and the “conversion to 1,5-cz-[Ln(Lig)] with hydrolysed group in the side chain, Lu^III” value ([2]; after 1 hour at 80° C.) was 6%. The “conversion to 1,5-cz-[Ln(Lig)], Lu^III” value ([2]; after 1 hour at 80° C.) was 57%, the “conversion to 1,5-cz-[Ln(Lig)] with hydrolysed group in the side chain, Nd^III” value ([2]; after 1 week at 80° C.) was 71% and the “conversion to 1,5-cz-[Ln(Lig)], Nd^III” value ([2]; after 1 week at 80° C.) was 0%. For the same compound, the “conversion to 1,5-cz-[Ln(Lig)] with hydrolysed group in the side chain, Nd^III” value ([2]; after 1 hour at 80° C.) was 0%, the “conversion to 1,5-cz-[Ln(Lig)], Nd^III” value ([2]; after 1 hour at 80° C.) was 1% and the “conversion to 1,5-cz-[Ln(Lig)] with hydrolysed group in the side chain, Pr^III” value ([2]; after 1 week at 80° C.) was 61%. The “conversion to 1,5-cz-[Ln(Lig)], Pr^III” value ([2]; after 1 week at 80° C.) was 0%, the “conversion to 1,5-cz-[Ln(Lig)] with hydrolysed group in the side chain, Pr^III” value ([2]; after 1 hour at 80° C.) was 0% and the “conversion to 1,5-cz-[Ln(Lig)], Pr^III” value ([2]; after 1 hour at 80° C.) was 0%. The “conversion to 1,5-cz-[Ln(Lig)] with hydrolysed group in the side chain, Sm^III” value ([2]; after 1 week at 80° C.) was 86%, the “conversion to 1,5-cz-[Ln(Lig)], Sm^III” value ([2]; after 1 week at 80° C.) was 0% and the “conversion to 1,5-cz-[Ln(Lig)] with hydrolysed group in the side chain, Sm^III” value ([2]; after 1 hour at 80° C.) was 0%. For the same compound, the “conversion to 1,5-cz-[Ln(Lig)], Sm^III” value ([2]; after 1 hour at 80° C.) was 3%, the “conversion to 1,5-cz-[Ln(Lig)] with hydrolysed group in the side chain, Tb^III” value ([2]; after 1 week at 80° C.) was 91% and the “conversion to 1,5-cz-[Ln(Lig)], Tb^III” value ([2]; after 1 week at 80° C.) was 0%. For the same compound, the “conversion to 1,5-cz-[Ln(Lig)] with hydrolysed group in the side chain, Tb^III” value ([2]; after 1 hour at 80° C.) was 1%, the “conversion to 1,5-cz-[Ln(Lig)], Tb^III” value ([2]; after 1 hour at 80° C.) was 9% and the “conversion to 1,5-cz-[Ln(Lig)] with hydrolysed group in the side chain, Tm^III” value ([2]; after 1 week at 80° C.) was 95%. For the same compound, the “conversion to 1,5-cz-[Ln(Lig)], Tm^III” value ([2]; after 1 week at 80° C.) was 0%, the “conversion to 1,5-cz-[Ln(Lig)] with hydrolysed group in the side chain, Tm^III” value ([2]; after 1 hour at 80° C.) was 5% and the “conversion to 1,5-cz-[Ln(Lig)], Tm^III” value ([2]; after 1 hour at 80° C.) was 45%. For the same compound, the “conversion to 1,5-cz-[Ln(Lig)] with hydrolysed group in the side chain, Yb^III” value ([2]; after 1 week at 80° C.) was 95%, the “conversion to 1,5-cz-[Ln(Lig)], Yb^III” value ([2]; after 1 week at 80° C.) was 0% and the “conversion to 1,5-cz-[Ln(Lig)] with hydrolysed group in the side chain, Yb^III” value ([2]; after 1 hour at 80° C.) was 5%. For the same compound, the “conversion to 1,5-cz-[Ln(Lig)], Yb^III” value ([2]; after 1 hour at 80° C.) was 54%.
